In ChEMBL document CHEMBL1201862, “PubChem BioAssay data set” (2004):
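Growth conditions: 96-well plates. Treatment: test compound, 48 hours, 5 concentrations. Analysis: linear interpolation between bracketing concentrations; unreached endpoints set to highest concentration. The concentration for 50% growth inhibition is given as GI50.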 Activity calls are given as the source filed them. Cut-off read from the data, not from the text of the source: active = GI50 up to about 1.1 µM and inactive = higher.

Legend:
Test in all cases: inhibition of tumour cell growth, NCI panel, 48 h
[1] = test system: SK-MEL-5
[2] = test system: KM12
[3] = test system: SN12C
[4] = test system: U-251
[5] = test system: COLO 205
[6] = test system: SW-620
[7] = test system: SK-MEL-28
[8] = test system: K562
[9] = test system: SR
[10] = test system: SNB-75
[11] = test system: MDA-MB-231
[12] = test system: HCT-15
[13] = test system: 786-0
[14] = test system: HCT-116
[15] = test system: ACHN
[16] = test system: M14
[17] = test system: OVCAR-8
[18] = test system: EKVX
[19] = test system: RPMI-8226
[20] = test system: NCI-H522
[21] = test system: SF-295
[22] = test system: IGROV-1
[23] = test system: HCC 2998
[24] = test system: HL-60
[25] = test system: HOP-62
[26] = test system: SK-OV-3
[27] = test system: PC-3
[28] = test system: UO-31
[29] = test system: SF-539
[30] = test system: NCI/ADR-RES
[31] = test system: T47D
[32] = test system: MOLT-4
[33] = test system: SNB-19
[34] = test system: UACC-257
[35] = test system: TK-10
[36] = test system: MCF7
[37] = test system: OVCAR-5
[38] = test system: MDA-N
[39] = test system: MDA-MB-435
[40] = test system: SF-268
[41] = test system: HOP-92
[42] = test system: SK-MEL-2
[43] = test system: RXF 393
[44] = test system: LOX IMVI
[45] = test system: NCI-H23
[46] = test system: OVCAR-4
[47] = test system: DU-145
[48] = test system: Malme-3M
[49] = test system: CAKI-1
[50] = test system: OVCAR-3
[51] = test system: CCRF-CEM
[52] = test system: A549
[53] = test system: A498
[54] = test system: UACC-62
[55] = test system: NCI-H226

`COc1ccc2c3c([nH]c2c1)-c1nc2ccccc2c(=O)n1CC3` was tested, and the GI50 [1] was > 25 µM (inactive), the GI50 [2] was > 25 µM (inactive) and the GI50 [3] was > 25 µM (inactive). The GI50 [4] was > 25 µM (inactive), the GI50 [5] was > 25 µM (inactive) and the GI50 [6] was > 25 µM (inactive). For the same compound, the GI50 [7] was > 25 µM (inactive), the GI50 [8] was > 25 µM (inactive) and the GI50 [9] was > 25 µM (inactive). For the same compound, the GI50 [10] was 13.1 µM (inactive), the GI50 [11] was > 25 µM (inactive) and the GI50 [12] was > 25 µM. The GI50 [13] was 0.317 µM (active), the GI50 [14] was > 25 µM (inactive) and the GI50 [15] was > 25 µM (inactive). The GI50 [16] was > 25 µM (inactive), the GI50 [17] was > 25 µM (inactive) and the GI50 [18] was > 25 µM (inactive). The GI50 [19] was > 25 µM (inactive), the GI50 [20] was > 25 µM (inactive) and the GI50 [21] was > 25 µM (inactive). For the same compound, the GI50 [22] was > 25 µM (inactive), the GI50 [23] was > 25 µM (inactive) and the GI50 [24] was > 25 µM (inactive). For the same compound, the GI50 [25] was > 25 µM (inactive), the GI50 [26] was > 25 µM (inactive) and the GI50 [27] was > 25 µM (inactive). The GI50 [28] was > 25 µM (inactive), the GI50 [29] was 14.9 µM (inactive) and the GI50 [30] was > 25 µM (inactive). The GI50 [31] was > 25 µM (inactive), the GI50 [32] was > 25 µM (inactive) and the GI50 [33] was > 25 µM (inactive). For the same compound, the GI50 [34] was > 25 µM (inactive), the GI50 [35] was > 25 µM (inactive) and the GI50 [36] was > 25 µM (inactive). For the same compound, the GI50 [37] was > 25 µM (inactive), the GI50 [38] was > 25 µM (inactive) and the GI50 [39] was > 25 µM (inactive). For the same compound, the GI50 [40] was 21.5 µM (inactive).

In the case of `O=NNc1cnc(O)nc1O`, the GI50 [1] is reported as > 100 µM (inactive), the GI50 [41] is reported as > 100 µM (inactive) and the GI50 [2] is reported as > 100 µM (inactive). For the same compound, the GI50 [3] was > 100 µM (inactive), the GI50 [4] was > 100 µM (inactive) and the GI50 [5] was > 100 µM (inactive). For the same compound, the GI50 [6] was > 100 µM (inactive), the GI50 [42] was > 100 µM (inactive) and the GI50 [7] was > 100 µM (inactive). The GI50 [8] was > 100 µM (inactive), the GI50 [43] was > 100 µM (inactive) and the GI50 [44] was > 100 µM (inactive). For the same compound, the GI50 [45] was > 100 µM (inactive), the GI50 [46] was > 100 µM (inactive) and the GI50 [10] was 8.75 µM (inactive). The GI50 [47] was > 100 µM (inactive), the GI50 [11] was > 100 µM (inactive) and the GI50 [48] was > 100 µM (inactive). For the same compound, the GI50 [12] was > 100 µM, the GI50 [13] was > 100 µM (inactive) and the GI50 [14] was > 100 µM (inactive). For the same compound, the GI50 [15] was > 100 µM (inactive), the GI50 [16] was > 100 µM (inactive) and the GI50 [17] was > 100 µM (inactive). The GI50 [49] was > 100 µM (inactive), the GI50 [18] was > 100 µM (inactive) and the GI50 [19] was > 100 µM (inactive). The GI50 [50] was 74.8 µM (inactive), the GI50 [20] was > 100 µM (inactive) and the GI50 [21] was > 100 µM (inactive). The GI50 [22] was 52.4 µM (inactive), the GI50 [23] was > 100 µM (inactive) and the GI50 [24] was 49.3 µM (inactive). For the same compound, the GI50 [51] was > 100 µM (inactive), the GI50 [25] was > 100 µM (inactive) and the GI50 [26] was > 100 µM (inactive). The GI50 [27] was > 100 µM (inactive), the GI50 [28] was > 100 µM (inactive) and the GI50 [29] was > 100 µM (inactive). For the same compound, the GI50 [30] was > 100 µM (inactive), the GI50 [31] was > 100 µM (inactive) and the GI50 [32] was > 100 µM (inactive). The GI50 [33] was > 100 µM (inactive), the GI50 [34] was > 100 µM (inactive) and the GI50 [35] was > 100 µM (inactive). For the same compound, the GI50 [36] was > 100 µM (inactive), the GI50 [52] was > 100 µM (inactive) and the GI50 [53] was 92.7 µM (inactive). For the same compound, the GI50 [38] was > 100 µM (inactive), the GI50 [54] was 71.3 µM (inactive) and the GI50 [55] was > 100 µM (inactive). The GI50 [39] was > 100 µM (inactive).
